{"source": "patent US11485891B2", "about": "“Products and methods for the treatment of mixtures of water and hydrophobic liquids” (B.C. RESEARCH INC., priority 2018, dated 2022)", "key": {"[1]": {"assay": "Gelling ability, solution phase (co-solvent) delivery to dilbit-water mixture", "method": "PSOGs were screened against dilbit, diesel and sunflower. The dilbit used in the Examples herein was prepared by dissolving bitumen in naphtha in a 65:35 ratio of bitumen to naphtha. A typical screening method utilized a 1:4 ratio of hydrophobic liquid to water (i.e., 1 mL oil product to 4 mL water) in a 20 mL vial. The gellant (22.5 mg) was dissolved in a carrier solvent, which was typically methanol, ethanol or isopropanol. Heat was applied to dissolve the solid if necessary. The gellant solution was transferred to the oil-water mixture and the vial was capped. Agitation was applied and the mixture allowed to settle. Gel formation typically presented as the formation of an oil pellet or a thickening of the oil phase.\nFour portions of the prior art compound dodecanoyl-L-alanine of differing masses were weighed out and each dissolved in 1 mL of isopropyl alcohol. These four solutions were added to four separate 20 mL vials of 1:4 mL dilbit and water. […] Gel formation was evaluated qualitatively.\nThis procedure was repeated with dodecanoyl-β-alaninamide. Four portions of dodecanoyl-β-alaninamide of differing masses were weighed out and each dissolved in 1 mL of isopropyl alcohol. These four solutions were added to four separate 20 mL vials containing 1 mL dilbit and 4 mL water. […] Gel formation was evaluated qualitatively."}, "[2]": {"assay": "Oil thickening, aqueous suspension delivery to dilbit-water mixture", "method": "Gellants which presented as fine powdery solids were suspended in water (4-5 mL). The suspension was sonicated to reduce the particle size if necessary. The suspension was added to a mixture of 1 mL oil to 4 mL water in a 20 mL vial. The vial was capped and the mixture agitated. Thickening of the oil, likely due to the formation of an emulsion, could be observed within 15 minutes.\nFour portions of prior art compound dodecanoyl-L-alanine of differing masses were weighed out and each suspended in 1 mL of water. These four suspensions were added to four separate 20 mL vials of 1:4 mL dilbit and water. […] Oil thickening was evaluated qualitatively.\nThis experiment was repeated with dodecanoyl-β-alaninamide. Four portions of dodecanoyl-β-alaninamide of differing masses were weighed out and each suspended in 7 mL of water. These four suspensions were added to four separate 20 mL vials of 1:4 mL dilbit and water. […] Oil thickening was evaluated qualitatively."}, "[3]": {"conditions": "Bhattacharya et al., Chemical Communications p. 185, 2001; cited from earlier work"}, "[4]": {"assay": "Herder activity: slick thickness of oil added to water pre-dosed with herder", "method": "The herder formulation was pre-dosed into 1 L of water in a flat glass pan under which was a 1×1 cm grid. A known volume of oil was applied to the pre-dosed water. A digital photo of the oil slick was recorded. The image was processed using ImageJ in order to calculate the area of the slick. Since volume and area are known, it is possible to calculate the thickness of the slick as a function of herder dosing. Compounds that maximize the thickness of the slick are considered better oil-herders.\nStearoyl alanine was dissolved in isopropyl alcohol. An aliquot of this solution was added to 1 L of water in a pan. The final dosage of stearoyl alanine was 0.77 mg in 1 L of water. Dilbit (2.27 g) was added. An overhead digital photo was taken of the oil after 10 minutes. The photo was analyzed to determine the area of the oil which could be used to calculate the thickness of the oil layer. The oil slick was determined to be 2.9 mm thick.\nSilsurf, (trademark) a commercial herder added to 1 L of water in a glass pan for a final dosing of 1 mg. Dilbit (1.61 g) was added to the water. An overhead digital photo was taken of the oil after 10 minutes. The photo was analyzed to determine the area of the oil which could be used to calculate the thickness of the oil layer. The oil slick was determined to be 2.0 mm thick."}, "[5]": {"assay": "Gelling activity using mixed organic solvent-water active suspension", "conditions": "25 mg in 5 mL 2:3 1,4-butanediol and water, heated and cooled; added to 1:4 oil and seawater, gentle agitation", "method": "The gellant oleic-p-alaninamide (25 mg) was suspended in 5 mL of a mixed solvent system composed of 2:3 1,4-butanediol and water. The mixture was heated to dissolve the solids. Upon cooling, the gellant precipitates as a cotton-like mass."}, "[6]": {"method": "The herder L-phenylalanine, N-(1-oxotetradecyl)-, sodium salt and the gellant oleic-β-alaninamide were assessed for biodegradability in using OECD 301F guideline, manometric respirometer test."}, "[7]": {"assay": "Gelling activity without organic solvent (active suspension in water)", "conditions": "25 mg in 5 mL water, heated and cooled; no organic solvent", "method": "The gellant oleic-β-alaninamide (25 mg) was suspended 5 mL of water which was dyed pink for visualization purposes. The mixture was heated to dissolve the gellant. Upon cooling, the gellant precipitated as a cotton-like mass which retains the water. […] Upon the addition of diesel, which has been dyed blue, the hydrophobic phase entered the gellant mass upon contact and displaced the dyed water (FIGS. 8B and 8C) to produce the gelled diesel."}, "[8]": {"assay": "Reduction of oil adhesion on glass beads conditioned with aqueous herder solution", "conditions": "beads conditioned 1 hour, in oil 1 hour", "method": "Glass bead were used as a model substrate. The beads were weighed and transferred into a pre-weighed 60 mL plastic syringe. The beads were immersed in an aqueous solution of herder, C14-L-Phe-COONa, for 1 hour. An oil layer of conventional crude oil was added to the surface of the herder solution above the glass beads. The oil was lowered hydrostatically to immerse the beads in oil for 1 hour after which the oil was raised hydrostatically above the level of the beads. The water above the oil and beads were both removed. The mass of the oil retained on the glass beads was calculated as the difference between the mass of the oil-coated beads and the initial mass of the beads."}, "[9]": {"assay": "Herding (slick retraction) of oil already spread on water", "conditions": "aqueous solution of herder applied to spread oil; images at 1, 5, 10 and 20 minutes", "source_text": "When an oil (e.g., dilbit) is applied to water in a pan, the oil spreads to cover the surface of the water. Application of FA-AA as a salt (e.g., Li, Na or K salts) dissolved in water results in contraction of the oil layer. The pooled oil has reduced surface area and greater slick thickness. This is illustrated in FIG. 9A-E where a solution of the salt of a FA-AA is applied to an aliquot of oil which has been allowed to spread in a pan (FIG. 9A). Application of the aqueous herder solution results in contraction of the slick over time. Images taken at 1, 5, 10 and 20 minutes are shown in FIGS. 9B, 9C, 9D and 9E respectively.\nAlternatively, an oil was applied to water in a pan and allowed to spread. A herder (e.g. L-phenylalanine, N-(1-oxotetradecyl)-, sodium salt) was applied to the water to retract the slick (i.e. decrease surface area while increasing the thickness/depth of the oil layer). Overhead photography was used to capture the herding process. The images were processed to determine the area of the slick and allow for calculation of the slick thickness (FIG. 9)."}}}
{"compound": "oleic alaninamide", "values": [{"measurement": "State of dilbit after PSOG delivered as solution in a water-miscible solvent (FIG. 3)", "setting": "[1]; dilbit and water", "result": "gel pellet"}, {"measurement": "State of dilbit after PSOG suspended in water (FIG. 3)", "setting": "[2]; dilbit and water", "result": "thickened state"}]}
{"compound": "CCCCCCCCCCCC(=O)N[C@@H](C)C(=O)O", "note": "[dodecanoyl-L-alanine, reference compound]", "values": [{"measurement": "Gelling ability", "setting": "[3]", "result": "gel various hydrophobic organic liquids including petrol"}, {"measurement": "Dosing ratio at which a gel formed (qualitative evaluation)", "setting": "[1]; gellant in 1 mL isopropyl alcohol, 1 mL dilbit and 4 mL water, tested at 2.5, 1.25, 0.83 and 0.63% w/v relative to dilbit", "result": 2.5, "unit": "% w/v"}, {"measurement": "Dosing level at which the oil thickened (qualitative evaluation)", "setting": "[2]; solid suspended in water, 1:4 mL dilbit and water, tested at 2.5, 1.25, 0.83 and 0.63% w/v relative to dilbit", "result": "did not thicken the oil at any of the dosing levels tested"}]}
{"compound": "CCCCCCCCCCCCCCCCCC(=O)N[C@@H](C)C(=O)O", "note": "[Stearoyl alanine]", "values": [{"measurement": "Oil slick thickness", "setting": "[4]; 0.77 mg in 1 L of water (from isopropyl alcohol solution), dilbit 2.27 g, photo after 10 minutes", "result": 2.9, "unit": "mm"}]}
{"compound": "CCCCCCCCCCCCCC(=O)N[C@@H](C)C(=O)[O-].[Na+]", "note": "[sodium tetradecanoylalaninate]", "values": [{"measurement": "Behaviour of oil added to a pan of water pre-dosed with herder (FIG. 2)", "setting": "[4]; FA-AA salt pre-dosed into water", "result": "contraction of the oil slick"}]}
{"compound": "CCCCCCCC/C=C\\CCCCCCCC(=O)NCCC(N)=O", "note": "[oleic-β-alaninamide]", "values": [{"measurement": "Time to gelling of the oil phase", "setting": "[5]", "result": "less than 1 minute"}, {"measurement": "Biodegradability classification", "setting": "[6]", "result": "inherently biodegradable"}, {"measurement": "Gelling of dyed diesel (FIG. 8)", "setting": "[7]", "result": "gelled diesel"}]}
{"compound": "CCCCCCCCCCCCCC(=O)N[C@@H](Cc1ccccc1)C(=O)[O-].[Na+]", "note": "[L-phenylalanine, N-(1-oxotetradecyl)-, sodium salt]", "values": [{"measurement": "Average mass of conventional crude retained", "setting": "[8]; herder concentration 0.086 g/L", "result": 1.9, "unit": "g"}, {"measurement": "Average mass of conventional crude retained", "setting": "[8]; herder concentration 0.57 g/L", "result": 1.3, "unit": "g"}, {"measurement": "Average mass of conventional crude retained", "setting": "[8]; herder concentration 2.9 g/L", "result": 1.6, "unit": "g"}, {"measurement": "Average mass of conventional crude retained", "setting": "[8]; herder concentration 10 g/L", "result": 1.8, "unit": "g"}, {"measurement": "Biodegradability classification", "setting": "[6]", "result": "readily biodegradable"}, {"measurement": "Herding of dilbit (FIG. 9)", "setting": "[9]", "result": "slick retraction"}]}
